Assay results from ChEMBL document CHEMBL1153072, “Synthesis and structure-activity relationship of dicationic diaryl ethers as novel potent anti-MRSA and anti-VRE agents” (2009).
Values after ≈ are worked out from the molar mass of the structure shown.

Experiments:
Type in all cases: functional
[1] = system: Enterococcus faecalis; test: Antibacterial activity against vancomycin-resistant Enterococcus faecalis ATCC 51575
[2] = system: Clostridium perfringens; test: Antibacterial activity against Clostridium perfringens ATCC 10388
[3] = system: Bacillus cereus; test: Antibacterial activity against Bacillus cereus ATCC 11778
[4] = system: Streptococcus pneumoniae; test: Antibacterial activity against Streptococcus pneumoniae ATCC 6301
[5] = system: Enterococcus faecium; test: Antibacterial activity against vancomycin-resistant Enterococcus faecium ATCC 700221
[6] = system: Candida albicans; test: Antifungal activity against Candida albicans ATCC 90028
[7] = system: Staphylococcus aureus; test: Antibacterial activity against methicillin-resistant Staphylococcus aureus ATCC 33591
[8] = system: Staphylococcus aureus; test: Antibacterial activity against multidrug resistant Staphylococcus aureus BAA-39
[9] = system: Bacillus subtilis; test: Antibacterial activity against Bacillus subtilis ATCC 23857
[10] = system: Staphylococcus aureus; test: Antibacterial activity against Staphylococcus aureus ATCC 29213
[11] = system: Bacteroides fragilis; test: Antibacterial activity against […] ATCC 23745
[12] = system: Staphylococcus epidermidis; test: Antibacterial activity against methicillin-resistant Staphylococcus epidermidis ATCC 51625
[13] = system: Staphylococcus epidermidis; test: Antibacterial activity against Staphylococcus epidermidis ATCC 12228

Row | SMILES | MIC [1] [µg/mL] | MIC [2] [µg/mL] | MIC [3] [µg/mL] | MIC [4] [µg/mL] | MIC [5] [µg/mL] | MIC [6] [µg/mL] | MIC [7] [µg/mL] | MIC [8] [µg/mL] | MIC [9] [µg/mL] | MIC [10] [µg/mL] | MIC [11] [µg/mL] | MIC [12] [µg/mL] | MIC [13] [µg/mL]
1 | CC(C)NC(=N)c1ccc2[nH]c(-c3ccc(Oc4ccc(-c5nc6cc(C(=N)NC(C)C)ccc6[nH]5)cc4Cl)cc3)nc2c1 | 0.25 (≈ 0.413 µM) | 0.5 (≈ 0.826 µM) | 0.12 (≈ 0.198 µM) | ≤ 0.06 | ≤ 0.06 | 1 (≈ 1.65 µM) | 0.25 (≈ 0.413 µM) | 0.25 (≈ 0.413 µM) | 0.12 (≈ 0.198 µM) | 0.25 (≈ 0.413 µM) | 16 (≈ 26.4 µM) | ≤ 0.06 | ≤ 0.06
2 | CCN1CCN(C(=N)c2ccc3[nH]c(-c4ccc(Oc5ccc(-c6nc7cc(C(=N)N8CCN(CC)CC8)ccc7[nH]6)cc5)cc4)nc3c2)CC1 | 1 (≈ 1.47 µM) | 16 (≈ 23.5 µM) | 0.5 (≈ 0.734 µM) | 0.5 (≈ 0.734 µM) | 1 (≈ 1.47 µM) | 32 (≈ 47 µM) | 1 (≈ 1.47 µM) | 1 (≈ 1.47 µM) | 0.5 (≈ 0.734 µM) | 1 (≈ 1.47 µM) | 16 (≈ 23.5 µM) | 0.5 (≈ 0.734 µM) | 0.5 (≈ 0.734 µM)
3 | COc1cc(Oc2ccc(-c3nc4cc(C(=N)NC(C)C)ccc4[nH]3)cc2)ccc1-c1nc2cc(C(=N)NC(C)C)ccc2[nH]1 | 0.5 (≈ 0.832 µM) | 0.25 (≈ 0.416 µM) | 0.12 (≈ 0.2 µM) | ≤ 0.06 | ≤ 0.06 | 2 (≈ 3.33 µM) | 0.25 (≈ 0.416 µM) | 0.5 (≈ 0.832 µM) | ≤ 0.06 | 0.5 (≈ 0.832 µM) | > 32 | 0.12 (≈ 0.2 µM) | ≤ 0.06
4 | N=C(c1ccc2[nH]c(-c3ccc(Oc4ccc(-c5nc6cc(C(=N)N7CCOCC7)ccc6[nH]5)cc4)cc3)nc2c1)N1CCOCC1 | 0.5 (≈ 0.798 µM) | 2 (≈ 3.19 µM) | 0.12 (≈ 0.191 µM) | 0.5 (≈ 0.798 µM) | 0.5 (≈ 0.798 µM) | 16 (≈ 25.5 µM) | 0.5 (≈ 0.798 µM) | 0.5 (≈ 0.798 µM) | 0.5 (≈ 0.798 µM) | 1 (≈ 1.6 µM) | 8 (≈ 12.8 µM) | 0.5 (≈ 0.798 µM) | 0.25 (≈ 0.399 µM)
5 | CN[C@H](CC(C)C)C(=O)N[C@H]1C(=O)N[C@@H](CC(N)=O)C(=O)N[C@H]2C(=O)N[C@H]3C(=O)N[C@H](C(=O)N[C@H](C(=O)O)c4cc(O)cc(O)c4-c4cc3ccc4O)[C@H](O)c3ccc(c(Cl)c3)Oc3cc2cc(c3O[C@@H]2O[C@H](CO)[C@@H](O)[C@H](O)[C@H]2O[C@H]2C[C@](C)(N)[C@H](O)[C@H](C)O2)Oc2ccc(cc2Cl)[C@H]1O [VANCOMYCIN] | > 64 | 0.12 (≈ 0.0828 µM) | ≤ 1 | 1 (≈ 0.69 µM) | > 64 | > 32 |  |  | 0.12 (≈ 0.0828 µM) |  | 4 (≈ 2.76 µM) |  | 
6 | N=C(c1ccc2[nH]c(-c3ccc(Oc4ccc(-c5nc6cc(C(=N)N7CCCC7)ccc6[nH]5)cc4)cc3)nc2c1)N1CCCC1 | 0.25 (≈ 0.42 µM) | 0.5 (≈ 0.841 µM) | 0.12 (≈ 0.202 µM) | < 0.06 | < 0.06 | 4 (≈ 6.73 µM) | 0.25 (≈ 0.42 µM) | 0.5 (≈ 0.841 µM) | < 0.06 | 0.25 (≈ 0.42 µM) | 2 (≈ 3.36 µM) | 0.12 (≈ 0.202 µM) | 0.12 (≈ 0.202 µM)
7 | CCC(C)NC(=N)c1ccc2[nH]c(-c3ccc(Oc4ccc(-c5nc6cc(C(=N)NC(C)CC)ccc6[nH]5)cc4)cc3)nc2c1 (stereo not given) | 0.25 (≈ 0.418 µM) | 0.5 (≈ 0.835 µM) | < 0.06 | < 0.06 | < 0.06 | 2 (≈ 3.34 µM) | 0.25 (≈ 0.418 µM) | 0.5 (≈ 0.835 µM) | < 0.06 | 0.5 (≈ 0.835 µM) | 16 (≈ 26.7 µM) | 0.12 (≈ 0.2 µM) | 0.12 (≈ 0.2 µM)
8 | CC(C)NC(=N)c1ccc2[nH]c(-c3ccc(Oc4ccc(-c5nc6cc(C(=N)NC(C)C)ccc6[nH]5)c(C(F)(F)F)c4)cc3)nc2c1 | 0.12 (≈ 0.188 µM) | 0.25 (≈ 0.391 µM) | 0.12 (≈ 0.188 µM) | ≤ 0.06 | ≤ 0.06 | 4 (≈ 6.26 µM) | 0.25 (≈ 0.391 µM) | 0.5 (≈ 0.783 µM) | ≤ 0.06 | 0.5 (≈ 0.783 µM) | 8 (≈ 12.5 µM) | 0.12 (≈ 0.188 µM) | ≤ 0.06
9 | CC1CC(C)CN(C(=N)c2ccc3[nH]c(-c4ccc(Oc5ccc(-c6nc7cc(C(=N)N8CC(C)CC(C)C8)ccc7[nH]6)cc5)cc4)nc3c2)C1 (stereo not given) | 1 (≈ 1.47 µM) | 2 (≈ 2.95 µM) | 1 (≈ 1.47 µM) | 0.5 (≈ 0.737 µM) | 0.5 (≈ 0.737 µM) | 8 (≈ 11.8 µM) | 0.25 (≈ 0.368 µM) | 0.5 (≈ 0.737 µM) | 0.25 (≈ 0.368 µM) | 0.5 (≈ 0.737 µM) | 4 (≈ 5.89 µM) | 0.5 (≈ 0.737 µM) | 0.25 (≈ 0.368 µM)
10 | N=C(c1ccc2[nH]c(-c3ccc(Oc4ccc(-c5nc6cc(C(=N)N7CCCCC7)ccc6[nH]5)cc4)cc3)nc2c1)N1CCCCC1 | 0.25 (≈ 0.401 µM) | 0.25 (≈ 0.401 µM) | 0.25 (≈ 0.401 µM) | < 0.06 | 0.12 (≈ 0.193 µM) | 8 (≈ 12.8 µM) | 0.12 (≈ 0.193 µM) | 0.5 (≈ 0.803 µM) | < 0.06 | 0.25 (≈ 0.401 µM) | 2 (≈ 3.21 µM) | 0.12 (≈ 0.193 µM) | < 0.06
